What was measured:
[1] = Substance solubility in phosphate buffer; assay type: physicochemical; settings: aqueous buffer, thermodynamic from solid; phosphate buffer pH 7.4, dry compound in solid state
Protocol: (§1) • Human A2a and A2b receptor pharmacology: Chinese hamster ovary CHO-K1 cells stably expressing human A2a and A2b receptors were used to determine substances agonistic potency and intrinsic activity. […] The signal corresponding to adenosine at 100 μmol/L was used to define 100% intrinsic activity. • Human A3 receptor pharmacology: A3 receptor Gi coupling was measured by GTPγ ^35[S] filter assay at serial dilutions of compound using membranes from Perkin-Elmer. The signal corresponding to the maximal response of NECA at 100 μmol/L was set to 100% intrinsic activity. • Lipopolysaccharide (LPS)-induced TNFα production in primary human peripheral blood mononuclear cells (hTNFα PBMC) and rat mononuclears (rTNFα splenocytes): Human PBMC and rat mononuclear spleen cells were incubated with serial dilutions of compound and stimulated with LPS.
Solubility was measured in phosphate buffer at pH 7.4 using dry compounds in solid state.

[2] = Lipophilicity (LogD), shake flask; assay type: physicochemical; settings: 1-octanol / phosphate buffer, octanol-water, phosphate buffer pH 7.4
Protocol: as §1
The octanol-water partition coefficient (LogD) was measured using the shake flask method. 600µL of 1-octanol was added to a vial with 6µL of 10mM DMSO-solution of the test compound. 600µL of 10mM sodium phosphate buffer adjusted to pH 7.4 was added and equilibrium was performed by vigorous shaking for ten minutes with an Eppendorf mixer. The phases were separated by centrifugation. The samples were analysed by HPLC with UV-detection at 254nm.

A2a [3] = biological target: T1, A2a (Homo sapiens, UniProt P29274); assay: Selectivity panel of 98 targets in binding assays (Ricerca): A2a; design: Ricerca (contract panel); settings: 10 μmol/L of compound; data on AstraZeneca file
Protocol: The medicinal chemistry synthetic optimization focused on the position C2 and N6 (Fig.2) with the aim to discover a compound with high A2a potency, high selectivity, low lipophilicity (logD), and high solubility. […] Selectivity of compound 2 was tested across 98 targets in binding assays (www.ricerca.com). The only identified significant hits (i.e., >50% effect at 10 μmol/L of compound 2) were A2a (∼100%) and A3 (∼84%) data on AstraZeneca file.

[4] = Plasma protein binding by equilibrium dialysis; assay type: in vitro ADME; settings: male, Wistar, pH 7.4, rat plasma, 10 μmol/L, read-out: fu rat (free unbound drug in plasma)
Protocol: as §1
The plasma protein binding was determined in plasma from male Wistar rats at a compound concentration of 10μM by equilibrium dialysis against a phosphate buffer at pH 7.4 using a semi-permeable membrane with a molecular cut-off of 6-8KDa (Spectra/Por, Spectrum Laboratories Inc, US). The compounds were dialyzed for 18h at 37±1°C in an air incubator on an orbital shaker. The samples were analysed using LC-MS/MS.

[5] = tested on: LPS-induced TNFα production in human PBMC; assay: LPS-induced TNFα production in primary human PBMC (hTNFα PBMC); assay type: cell-based
Protocol: as §1
Procedures and assays were run in R10 buffer (RPMI 1640 Medium supplemented with GlutaMAX™ and HEPES (GIBCO-BRL), 10% fetal calf serum, penicillin and streptomycin (each 5000IU/ml)). Human PBMC were purified from heparinised blood by Ficoll separation (Ficoll, Amersham Pharmacia Biotech AB, Cat: 17-1440-03, Lot: 312170) and rat mononuclear cells were collected after rat spleen perfusion. Both cell preparations were followed by hypotonic lysis of residual erythrocytes. Serial dilutions of compounds were pre-incubated with 200 000 cells/well (96-well plate) for 45min in 37 °C (190µl). Cells were stimulated by 10µl LPS (final concentration 0.5ng/ml human and 150ng/ml rat; SIGMA Cat: L-4516, Lot: 104K4036) for 18h at 37 °C. TNFα release was measured by ELISA (^TmR&D Systems plates) according to the manufacturer’s instructions in cell free supernatant.

A2a [6] = biological target: T1, A2a; assay: Human A2a receptor pharmacology: cAMP Alphascreen in CHO-K1 cells; assay type: cell-based; design: expressed in transfected cells; host or cells: CHO-K1
Protocol: as §1
(§2) Chinese hamster ovary CHO-K1 cells stably expressing human A2a and A2b receptors were stored as 1ml aliquots at -150 °C in freezing medium, thawed immediately prior to assay. […] Cells (10000 cells/well) were incubated with test compounds prepared as serial dilutions. Potency (EC50) and efficacy (% of maximal response) were calculated from data fitted to a 4-parameter logistic function. The signal of 10µM NECA represented the maximal cAMP response (i.e. 100% of efficacy) produced by these cells.

human A2b receptors = biological target: T2, human A2b receptors (Homo sapiens, UniProt P29275); assay: Human A2b receptor pharmacology: cAMP Alphascreen in CHO-K1 cells; assay type: cell-based; settings: average (SD)
T2 construct: expressed in transfected cells; host or cells: CHO-K1
T2 sequence (P29275 1-332): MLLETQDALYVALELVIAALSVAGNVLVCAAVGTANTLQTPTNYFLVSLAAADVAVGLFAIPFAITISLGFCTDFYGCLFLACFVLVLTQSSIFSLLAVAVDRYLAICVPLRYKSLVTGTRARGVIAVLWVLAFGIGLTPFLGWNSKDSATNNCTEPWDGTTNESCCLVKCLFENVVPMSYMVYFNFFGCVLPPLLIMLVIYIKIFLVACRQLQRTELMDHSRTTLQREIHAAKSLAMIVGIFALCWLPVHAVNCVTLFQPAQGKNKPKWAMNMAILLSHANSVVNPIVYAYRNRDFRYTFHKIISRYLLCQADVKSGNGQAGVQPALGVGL
Protocol: as §1, §2

T1 sequence (P29274 whole entry): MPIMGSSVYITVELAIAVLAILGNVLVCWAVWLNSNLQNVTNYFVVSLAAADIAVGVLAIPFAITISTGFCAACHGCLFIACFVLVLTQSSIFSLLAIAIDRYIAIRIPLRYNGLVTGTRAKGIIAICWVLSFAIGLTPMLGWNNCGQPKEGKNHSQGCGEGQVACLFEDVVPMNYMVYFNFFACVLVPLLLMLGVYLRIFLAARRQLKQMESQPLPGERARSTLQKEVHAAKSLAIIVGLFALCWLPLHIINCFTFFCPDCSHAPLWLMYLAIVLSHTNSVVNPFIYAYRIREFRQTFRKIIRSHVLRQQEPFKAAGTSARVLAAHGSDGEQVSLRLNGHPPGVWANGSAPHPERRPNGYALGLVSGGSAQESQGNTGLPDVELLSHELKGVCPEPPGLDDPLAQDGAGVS

solubility [1]: > 1000 µM | logD at 10 min [2]: < -1 | Effect in binding assay, A2a (A2a [3]): ~100% | fraction unbound at 18 h, 10 μM [4]: 0.44 | Emax (A2a [6]; CHO-K1, 100% = 10 μmol/L NECA, average (SD), read-out: A2a human CHO-K1 cells Intrinsic activity): 97.9% | EC50 (A2a [6]; cAMP generation, average (SD)): 1.4 nM | Selectivity for A2a over A1, A2b and A3 (A2a [6]; human adenosine receptors): > 1000 fold | EC50 (human A2b receptors): 3.6 µM
Compound: CCNC(=O)[C@H]1O[C@@H](n2cnc3c(NC(CC)CC)nc(NCCNC(=O)Nc4cc[n+](C)cc4)nc32)[C@H](O)[C@@H]1O [Compound 2, (2S,3S,4R,5R)-N-ethyl-5-[6-(1-ethylpropylamino)-2-[2-[(1-methylpyridin-1-ium-4-yl)carbamoylamino]ethylamino]purin-9-yl]-3,4-dihydroxy-tetrahydrofuran-2-carboxamide]
EC50 ([5]; Homo sapiens, PBMC, read-out: EC50, inhibition of LPS stimulated TNFα release in human PBMC): 0.5 nM | IC50 ([5]; LPS-stimulated TNFα release, human PBMC, average (SD)): 0.5 nM | Emax ([5]; LPS-stimulated TNFα release, human PBMC, average (SD), read-out: Human TNFα PBMC Intrinsic activity): 72.4%

Reference: article PMC4492750, “The discovery of a selective and potent A2a agonist with extended lung retention” (Pharmacology Research & Perspectives, 2015)
